Values quoted from earlier work as cited in PubChem BioAssay AID1259409 (Chemical Carcinogenesis Research Information System (CCRIS), 2018).

System: rodent chemically induced tumor inhibition, incidence and multiplicity
Experiment: CCRIS tumor inhibitor studies

**Q.** Which results are given for `CC(=O)Oc1ccccc1C(=O)O`?
**A.** tumour outcome (control, treated, inhibition, significance) (Carcinogen: AZOXYMETHANE, 25843-45-2, Dose [Inhibitor]: 0, 250 PPM IN DIET FOR 34 WK BEGINNING 1 WK POST LAST CARCINOGEN DOSE (STUDY DURATION: 49 WK), Route [Inhibitor]: ORAL, Species: RAT, Strain/Sex: F344/MALE, Target Tissue: Type of Lesion: COLON: ADENOCARCINOMA, Dose [Carcinogen]: 12 MG/KG BW IN 0.9% SALINE TWICE, Promoter: CHOLIC ACID, 81-25-4): 26%, 19%, 27%, not significant; tumour outcome (control, treated, inhibition, significance) (Carcinogen: AZOXYMETHANE, 25843-45-2, Dose [Inhibitor]: 0, 250 PPM IN DIET FOR 34 WK BEGINNING 1 WK POST LAST CARCINOGEN DOSE (STUDY DURATION: 49 WK), Route [Inhibitor]: ORAL, Species: RAT, Strain/Sex: F344/MALE, Target Tissue: Type of Lesion: COLON: ADENOMA, Dose [Carcinogen]: 12 MG/KG BW IN 0.9% SALINE TWICE, Promoter: CHOLIC ACID, 81-25-4): 81%, 77%, 5%, not significant; tumour outcome (control, treated, inhibition, significance) (Carcinogen: AZOXYMETHANE, 25843-45-2, Dose [Inhibitor]: 0, 250 PPM IN DIET FOR 34 WK BEGINNING 1 WK POST LAST CARCINOGEN DOSE (STUDY DURATION: 49 WK), Route [Inhibitor]: ORAL, Species: RAT, Strain/Sex: F344/MALE, Target Tissue: Type of Lesion: SMALL INTESTINE: ADENOCARCINOMA, Dose [Carcinogen]: 12 MG/KG BW IN 0.9% SALINE TWICE, Promoter: CHOLIC ACID, 81-25-4): 23%, 23%, 0%, not significant; tumour outcome (control, treated, inhibition, significance) (Carcinogen: AZOXYMETHANE, 25843-45-2, Dose [Inhibitor]: 0, 250 PPM IN DIET FOR 34 WK BEGINNING 1 WK POST LAST CARCINOGEN DOSE (STUDY DURATION: 49 WK), Route [Inhibitor]: ORAL, Species: RAT, Strain/Sex: F344/MALE, Target Tissue: Type of Lesion: SMALL INTESTINE: ADENOMA, Dose [Carcinogen]: 12 MG/KG BW IN 0.9% SALINE TWICE, Promoter: CHOLIC ACID, 81-25-4): 17%, 23%, -35%, not significant; tumour outcome (control, treated, inhibition, significance) (Carcinogen: AZOXYMETHANE, 25843-45-2, Dose [Inhibitor]: 0, 400 PPM IN DIET BEGINNING 2 WK PRIOR TO CARCINOGEN TREATMENT AND CONTINUING FOR 52 WK (STUDY DURATION: 54 WK), Route [Inhibitor]: ORAL, Species: RAT, Strain/Sex: F344/MALE, Target Tissue: Type of Lesion: COLON: ADENOCARCINOMA, Dose [Carcinogen]: 15 MG/KG BW 1/WK FOR 2 WK, Promoter: NONE USED): 78%, 47%, 40%, p<0.01; tumour outcome (control, treated, inhibition, significance) (Carcinogen: DIMETHYLHYDRAZINE HYDROCHLORIDE, 306-37-6, Dose [Inhibitor]: 0, 5 MG/KG 1/D 5D/WK BY GAVAGE AND SAME DOSE IN DIET 2 D/WK FOR 18 WK (STUDY DURATION: 18 WK), Route [Inhibitor]: GAVAGE, ORAL, Species: RAT, Strain/Sex: WISTAR/MALE, Target Tissue: Type of Lesion: COLON: TUMOR, Dose [Carcinogen]: 30 MG/KG/WK FOR 18 WK, Promoter: NONE USED): 100%, 100%, 0%, not significant; tumour outcome (control, treated, inhibition, significance) (Carcinogen: DIMETHYLHYDRAZINE HYDROCHLORIDE, 306-37-6, Dose [Inhibitor]: 0, 30 MG/KG 1/D 5 D/WK BY GAVAGE AND THE SAME DOSE IN DIET 2 D/WK FOR 18 WK (STUDY DURATION: 18 WK), Route [Inhibitor]: GAVAGE, ORAL, Species: RAT, Strain/Sex: WISTAR/MALE, Target Tissue: Type of Lesion: COLON: TUMOR, Dose [Carcinogen]: 30 MG/KG/WK FOR 18 WK, Promoter: NONE USED): 100%, 50%, 50%, p<0.03; tumour outcome (control, treated, inhibition, significance) (Carcinogen: DIMETHYLHYDRAZINE HYDROCHLORIDE, 306-37-6, Dose [Inhibitor]: 0, 60 MG/KG 1/D 5 D/WK BY GAVAGE AND THE SAME DOSE IN DIET 2 D/WK FOR 18 WK (STUDY DURATION: 18 WK), Route [Inhibitor]: GAVAGE, ORAL, Species: RAT, Strain/Sex: WISTAR/MALE, Target Tissue: Type of Lesion: COLON: TUMOR, Dose [Carcinogen]: 30 MG/KG/WK FOR 18 WK, Promoter: NONE USED): 100%, 25%, 75%, p<0.01; tumour outcome (control, treated, inhibition, significance) (Carcinogen: N-BUTYL-(4-HYDROXYBUTYL)NITROSAMINE, 3817-11-6, Dose [Inhibitor]: 0, 1 G/KG IN DIET FROM WK 1 THROUGH WK 20 OF STUDY, Route [Inhibitor]: ORAL, Species: RAT, Strain/Sex: WISTAR/MALE, Target Tissue: Type of Lesion: BLADDER: TUMOR, Dose [Carcinogen]: 0.05% IN DRINKING WATER FROM WK 2 THROUGH WK 10 OF STUDY (STUDY DURATION: 32 WK), Promoter: NONE USED): 8/29 (28%), 1/29 (3%), 89%, p<0.05; tumour outcome (control, treated, inhibition, significance) (Carcinogen: N-BUTYL-N-(4-HYDROXYBUTYL)NITROSAMINE, 3817-11-6, Dose [Inhibitor]: 0, 400 MG/KG DIET FOR 24 WK BEGINNING 1 WK PRIOR TO CARCINOGEN TREATMENT (STUDY DURATION: 24 WK), Route [Inhibitor]: ORAL, Species: MOUSE, Strain/Sex: BDF/MALE, Target Tissue: Type of Lesion: URINARY BLADDER: TRANSITIONAL CELL CARCINOMA, Dose [Carcinogen]: 7.5 MG 1/WK FOR 8 WK, Promoter: NONE USED): 22/75 (29%), 21/74 (28%), 3%, not significant; tumour outcome (control, treated, inhibition, significance) (Carcinogen: N-BUTYL-N-(4-HYDROXYBUTYL)NITROSAMINE, 3817-11-6, Dose [Inhibitor]: 0, 800 MG/KG DIET FOR 24 WK BEGINNING 1 WK PRIOR TO CARCINOGEN TREATMENT (STUDY DURATION: 24 WK), Route [Inhibitor]: ORAL, Species: MOUSE, Strain/Sex: BDF/MALE, Target Tissue: Type of Lesion: URINARY BLADDER: TRANSITIONAL CELL CARCINOMA, Dose [Carcinogen]: 7.5 MG 1/WK FOR 8 WK, Promoter: NONE USED): 22/75 (29%), 22/73 (30%), -3%, not significant; tumour outcome (control, treated, inhibition, significance) (Carcinogen: N-METHYL-N'-NITRO-N-NITROSOGUANIDINE, 70-25-7, Dose [Inhibitor]: FOLLOWING 8 WK CARCINOGEN/NACL REGIMEN, RATS FED DIETS SUPPLEMENTED WITH 1% ASPIRIN FOR 32 WK (STUDY DURATION: 40 WK), Route [Inhibitor]: ORAL, Species: RAT, Strain/Sex: WISTAR/MALE, Target Tissue: Type of Lesion: DUODENUM: ADENOCARCINOMA, Dose [Carcinogen]: 100 MG/L IN DRINKING WATER FOR 8 WK, AND SIMULTANEOUSLY FED DIET SUPPLEMENTED WITH 10% NACL, Promoter: SODIUM CHLORIDE, 7647-14-5): 3/39 (8%), 1/20 (5%), 38%, not significant; tumour outcome (control, treated, inhibition, significance) (Carcinogen: N-METHYL-N'-NITRO-N-NITROSOGUANIDINE, 70-25-7, Dose [Inhibitor]: FOLLOWING 8 WK CARCINOGEN/NACL REGIMEN, RATS FED DIETS SUPPLEMENTED WITH 1% ASPIRIN FOR 32 WK (STUDY DURATION: 40 WK), Route [Inhibitor]: ORAL, Species: RAT, Strain/Sex: WISTAR/MALE, Target Tissue: Type of Lesion: GLANDULAR STOMACH: ADENOCARCINOMA, Dose [Carcinogen]: 100 MG/L IN DRINKING WATER FOR 8 WK, AND SIMULTANEOUSLY FED DIET SUPPLEMENTED WITH 10% NACL, Promoter: SODIUM CHLORIDE, 7647-14-5): 3/39 (8%), 0/20 (0%), 100% not significant; tumour outcome (control, treated, inhibition, significance) (Carcinogen: N-METHYL-N'-NITRO-N-NITROSOGUANIDINE, 70-25-7, Dose [Inhibitor]: FOLLOWING 8 WK CARCINOGEN/NACL REGIMEN, RATS FED DIETS SUPPLEMENTED WITH 1% ASPIRIN FOR 32 WK (STUDY DURATION: 40 WK), Route [Inhibitor]: ORAL, Species: RAT, Strain/Sex: WISTAR/MALE, Target Tissue: Type of Lesion: GLANDULAR STOMACH: PRENEOPLASTIC HYPERPLASIA, Dose [Carcinogen]: 100 MG/L IN DRINKING WATER FOR 8 WK, AND SIMULTANEOUSLY FED DIET SUPPLEMENTED WITH 10% NACL, Promoter: SODIUM CHLORIDE, 7647-14-5): 5/39 (13%), 2/20 (10%), 23%, not significant; tumour outcome (control, treated, inhibition, significance) (Carcinogen: N-NITROSOBIS(2-OXOPROPYL)AMINE, 60599-38-4, Dose [Inhibitor]: 0, 1% IN DIET FOR 27 WK BEGINNING POST LAST CARCINOGEN DOSE (STUDY DURATION: 32 WK), Route [Inhibitor]: ORAL, Species: HAMSTER, Strain/Sex: SYRIAN/FEMALE, Target Tissue: Type of Lesion: PANCREAS: ADENOCARCINOMA, Dose [Carcinogen]: 10 MG/KG 1/WK FOR 5 WK, Promoter: NONE USED): 20/28 (71%), 10/19 (53%), 25%, not calculated; tumour outcome (control, treated, inhibition, significance) (Carcinogen: N-NITROSODIETHYLAMINE, 55-18-5, 2-ACETYLAMINOFLUORENE, 53-93-6, CARBON TETRACHLORIDE, 56-23-5, Carcinogen: N-NITROSODIETHYLAMINE, 55-18-5, 2-ACETYLAMINOFLUORENE, 53-93-6, CARBON TETRACHLORIDE, 56-23-5, Dose [Inhibitor]: 0, 0.75% IN DIET FOR 29 WK ADMINISTERED TO RATS BEARING PERSISTENT NODULES FOLLOWING CARCINOGEN TREATMENT (STUDY DURATIO, Route [Inhibitor]: ORAL, Species: RAT, Strain/Sex: F344/MALE, Target Tissue: Type of Lesion: LIVER: HEPATOCELLULAR CARCINOMA, Dose [Carcinogen]: 200 MG/KG BW DEN ONCE, 0.002% 2-AAF IN DIET FOR 2 WK, 1 MG/KG BW CCL4 MIDWAY IN 2-AAF TREATMENT, Dose [Carcinogen]: 200 MG/KG BW DEN ONCE, 0.002% 2-AAF IN DIET FOR 2 WK, 1 MG/KG BW CCL4 MIDWAY IN 2-AAF TREATMENT, Promoter: NONE USED): 7/8 (88%), 5/13 (38%), 57%, not significant; tumour outcome (control, treated, inhibition, significance) (Carcinogen: N-NITROSODIETHYLAMINE, 55-18-5, 2-ACETYLAMINOFLUORENE, 53-93-6, CARBON TETRACHLORIDE, 56-23-5, Carcinogen: N-NITROSODIETHYLAMINE, 55-18-5, 2-ACETYLAMINOFLUORENE, 53-93-6, CARBON TETRACHLORIDE, 56-23-5, Dose [Inhibitor]: 0, 0.75% IN DIET FOR 29 WK ADMINISTERED TO RATS BEARING PERSISTENT NODULES FOLLOWING CARCINOGEN TREATMENT (STUDY DURATIO, Route [Inhibitor]: ORAL, Species: RAT, Strain/Sex: F344/MALE, Target Tissue: Type of Lesion: LIVER: HEPATOCELLULAR CARCINOMA, Dose [Carcinogen]: 200 MG/KG BW DEN ONCE, 0.002% 2-AAF IN DIET FOR 2 WK, 1 ML/KG BW CCL4 MIDWAY IN 2-AAF TREATMENT, Dose [Carcinogen]: 200 MG/KG BW DEN ONCE, 0.002% 2-AAF IN DIET FOR 2 WK, 1 ML/KG BW CCL4 MIDWAY IN 2-AAF TREATMENT, Promoter: PHENOBARBITAL, 50-06-6): 12/12 (100%), 12/14 (86%), 14%, not significant; tumour outcome (control, treated, inhibition, significance) (Carcinogen: N-[4-(5-NITRO-2-FURYL)-2-THIAZOLYL]FORMAMIDE, 24554-26-5, Dose [Inhibitor]: 0.5% IN DIET FOR 2 D PRIOR TO AND FOR 7 D AFTER CARCINOGEN ADMINISTRATION (13 WK TOTAL) FOLLOWED BY 56 WK ON CONTROL DIE, Route [Inhibitor]: ORAL, Species: RAT, Strain/Sex: FISCHER/MALE, Target Tissue: Type of Lesion: URINARY BLADDER: CARCINOMA, Dose [Carcinogen]: 0.2% IN DIET SIMULTANEOUSLY WITH INHIBITOR FOR 12 WK, Promoter: NONE USED): 18/21 (86%), 10/27 (37%), 57%, p<0.001
